One data set has as its system hereditary ATTR. The following applies: patients with hereditary ATTR; cited from earlier work.
Data set [1] concerns ATTR-CM. As to conditions: 441 ATTR-CM patients, compared to placebo; cited from earlier work.
A further data set concerns TTR. The following applies: ITC; cited from earlier work.
Data set [2] in a line: Liver microsomal stability, rat. It is filed as in vitro ADME. (Liver microsomes are a subcellular fraction often used to study metabolism.)
A short description of data set [3]: Liver microsomal stability, mouse. It is filed as in vitro ADME.
The nature of data set [4]: Liver microsomal stability, monkey. It is filed as in vitro ADME, cynomolgus monkey. The following applies: for half-life: cynomolgus monkey.
Data set [5] can be described thus: Liver microsomal stability, human. In kind it is in vitro ADME.
Data set [6] in a line: Plasma protein binding, rat. It is filed as in vitro ADME.
A short description of data set [7]: Kinetic solubility in PBS. It is filed as physicochemical. The following applies: pH 7.4.
The next data set addresses CYP2C9 (Homo sapiens, UniProt P11712). In words: CYP inhibition 2C9. In kind it is in vitro ADME.
The next data set concerns the target CYP3A4 (Homo sapiens, UniProt P08684). The data set can be described thus: CYP inhibition 3A4. It is filed as in vitro ADME.
In the next data set the target is CYP2D6 (Homo sapiens, UniProt P10635). In words: CYP inhibition 2D6. It is filed as in vitro ADME.
Sequence of CYP2D6 (P10635 whole entry): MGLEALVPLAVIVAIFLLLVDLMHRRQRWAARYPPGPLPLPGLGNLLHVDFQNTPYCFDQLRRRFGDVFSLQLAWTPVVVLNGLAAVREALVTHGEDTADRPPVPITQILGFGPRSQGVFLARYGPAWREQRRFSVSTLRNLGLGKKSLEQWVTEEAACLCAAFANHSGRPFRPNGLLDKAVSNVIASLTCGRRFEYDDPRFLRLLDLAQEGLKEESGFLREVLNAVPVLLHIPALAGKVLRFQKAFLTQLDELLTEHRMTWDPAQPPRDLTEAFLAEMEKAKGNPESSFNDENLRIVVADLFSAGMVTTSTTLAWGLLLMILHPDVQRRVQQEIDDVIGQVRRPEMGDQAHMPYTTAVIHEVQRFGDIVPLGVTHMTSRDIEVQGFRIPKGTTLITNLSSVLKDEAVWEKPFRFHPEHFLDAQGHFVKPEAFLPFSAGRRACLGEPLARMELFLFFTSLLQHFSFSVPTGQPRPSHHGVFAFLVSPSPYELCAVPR
A short description of data set [8]: Plasma protein binding, human. It is filed as in vitro ADME.
In a further data set the target is CYP2C19 (Homo sapiens, UniProt P33261). The data set can be described thus: CYP inhibition 2C19. It is filed as in vitro ADME.
Sequence of CYP2C19 (P33261 whole entry): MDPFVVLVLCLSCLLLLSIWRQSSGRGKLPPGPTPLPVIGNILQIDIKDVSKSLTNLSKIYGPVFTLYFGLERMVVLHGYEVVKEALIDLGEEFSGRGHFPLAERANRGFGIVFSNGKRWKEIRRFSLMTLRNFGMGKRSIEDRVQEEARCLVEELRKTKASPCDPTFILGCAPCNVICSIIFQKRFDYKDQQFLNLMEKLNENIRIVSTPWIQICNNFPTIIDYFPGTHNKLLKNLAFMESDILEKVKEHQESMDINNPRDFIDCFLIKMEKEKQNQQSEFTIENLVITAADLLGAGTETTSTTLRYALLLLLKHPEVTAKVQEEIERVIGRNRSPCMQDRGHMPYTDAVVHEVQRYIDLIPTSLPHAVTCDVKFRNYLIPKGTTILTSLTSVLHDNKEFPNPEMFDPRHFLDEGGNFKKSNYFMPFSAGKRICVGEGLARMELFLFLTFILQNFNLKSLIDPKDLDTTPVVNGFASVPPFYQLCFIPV
In another data set the test system is serum RBP4 levels. On the set-up: species or system mice. As to conditions: mouse, in vivo, po.
In data set [9] the test system is ATTR-CM. The following applies: 28 day phase II, cited from earlier work.

Molecules are shown by their SMILES. A value given as a limit tells only on which side of the number the result lay.

Sequence of CYP2C9 (P11712 whole entry): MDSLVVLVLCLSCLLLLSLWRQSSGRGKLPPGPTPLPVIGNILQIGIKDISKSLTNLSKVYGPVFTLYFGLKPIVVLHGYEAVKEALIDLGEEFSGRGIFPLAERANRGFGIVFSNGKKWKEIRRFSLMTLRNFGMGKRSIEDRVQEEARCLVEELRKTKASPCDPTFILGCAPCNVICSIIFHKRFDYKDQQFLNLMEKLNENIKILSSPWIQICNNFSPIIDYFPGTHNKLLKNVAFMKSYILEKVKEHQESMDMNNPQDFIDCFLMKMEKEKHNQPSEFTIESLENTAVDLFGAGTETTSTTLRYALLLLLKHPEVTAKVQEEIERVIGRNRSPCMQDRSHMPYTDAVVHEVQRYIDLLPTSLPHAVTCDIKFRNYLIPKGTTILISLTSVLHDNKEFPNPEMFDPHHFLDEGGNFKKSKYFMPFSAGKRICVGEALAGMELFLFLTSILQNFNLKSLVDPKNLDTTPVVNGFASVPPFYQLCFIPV
Sequence of CYP3A4 (P08684 whole entry): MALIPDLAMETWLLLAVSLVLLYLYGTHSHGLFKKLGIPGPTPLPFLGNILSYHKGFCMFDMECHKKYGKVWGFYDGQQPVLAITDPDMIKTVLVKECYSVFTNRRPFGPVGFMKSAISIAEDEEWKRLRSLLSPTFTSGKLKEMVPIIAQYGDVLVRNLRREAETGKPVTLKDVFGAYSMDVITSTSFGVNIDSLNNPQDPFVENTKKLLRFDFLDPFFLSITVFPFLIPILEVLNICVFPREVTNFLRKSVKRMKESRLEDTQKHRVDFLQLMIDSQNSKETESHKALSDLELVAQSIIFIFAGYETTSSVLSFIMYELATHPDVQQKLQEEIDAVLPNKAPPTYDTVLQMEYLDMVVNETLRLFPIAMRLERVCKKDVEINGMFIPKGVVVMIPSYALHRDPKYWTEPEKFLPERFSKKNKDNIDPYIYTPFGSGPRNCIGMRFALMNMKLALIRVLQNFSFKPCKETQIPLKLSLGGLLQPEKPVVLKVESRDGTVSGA

Consider `O=C(O)c1ccc2nc(-c3cc(Cl)cc(Cl)c3)oc2c1` [tafamidis], for which, in the data set with hereditary ATTR, the “patients who do not respond” value was “Approximately 30%”. Moreover, in the data set with ATTR-CM [1], the “reduction of the rate of cardiovascular-related hospitalizations” value is 32% and the “reduction of the risk of death” value is on record as 30%. For the same compound, in the data set with TTR, the ΔH was -5.00 kcal/mol.
Turning to `Cc1n[nH]c(C)c1N1CCN(c2cc(C(=O)O)ccc2Cl)CC1` [20e, 4-chloro-3-(4-(3,5-dimethyl-1H-pyrazol-4-yl)piperazin-1-yl)benzoic acid], the half-life in data set [2] (liver microsomes), in data set [3] (liver microsomes), in data set [4] (liver microsomes) and in data set [5] (liver microsomes) was greater than 1 h in each case.
In the case of `COc1ccc(C(=O)O)cc1N1CCN(c2c(C)n[nH]c2C)CC1` [20b, 3-(4-(3,5-dimethyl-1H-pyrazol-4-yl)piperazin-1-yl)-4-methoxybenzoic acid], the results for the fraction unbound in data set [6] and in data set [8] were 0.22 and 0.25, respectively. For the same compound, in data set [7], the solubility is no less than 200 µM. The inhibition at 10 µM against CYP2C9 worked out at 1.4%; against CYP3A4, 19.6%; at CYP2D6, 8%; against CYP2C19, 4.2%. Besides, the half-life in data set [2] (liver microsomes), in [3] (liver microsomes), in data set [4] (liver microsomes) and in data set [5] (liver microsomes) was greater than 1 h in each case. Besides, the microsomal CLint in [2] (liver microsomes) was less than 23.1 µL/min/mg; in [3] (liver microsomes) it was less than 23.1 µL/min/mg; in data set [4] (monkey, liver microsomes), less than 23.1 µL/min/mg; in data set [5] (liver microsomes), less than 23.1 µL/min/mg. For the same compound, the share remaining at 0.5 h in [2] (liver microsomes) was found to be 101%; in data set [3] (liver microsomes), 102%; in data set [4] (monkey, liver microsomes), 102%; in [5] (liver microsomes) it was 108%.
For `Cc1cc(F)c(N2CCN(c3c(C)n[nH]c3C)CC2)cc1C(=O)O` [20i, 5-(4-(3,5-dimethyl-1H-pyrazol-4-yl)piperazin-1-yl)-4-fluoro-2-methylbenzoic acid], the half-life in [2] (liver microsomes), in [3] (liver microsomes), in data set [4] (liver microsomes) and in [5] (liver microsomes) was greater than 1 h in each case.
`Cc1n[nH]c(C)c1N1CCN(c2cc(C(=O)O)ccc2F)CC1` [compound 14, 3-(4-(3,5-dimethyl-1H-pyrazol-4-yl)piperazin-1-yl)-4-fluorobenzoic acid]: the half-life in [2] (microsomes), in data set [3] (microsomes), in data set [4] (microsomes) and in [5] (microsomes) was greater than 1 h each time. In addition, the “changes in serum TTR levels” value in the data set with serum RBP4 levels was “No changes”.
As for `Cc1n[nH]c(C)c1N1CCN(c2cc(-c3nn[nH]n3)ccc2F)CC1` [compound 54, 1-(3,5-dimethyl-1H-pyrazol-4-yl)-4-(2-fluoro-5-(2H-tetrazol-5-yl)phenyl)piperazine], the half-life in [2] (microsomes) is less than 1 h; in [3] (microsomes) it was less than 1 h; in data set [4] (microsomes), less than 1 h; in [5] (microsomes), 1.26 h. Further, the microsomal CLint in data set [5] (microsomes) was 18.4 µL/min/mg.
For `Cc1n[nH]c(C)c1N1CCN(c2cc(C(=O)O)ccc2C(F)(F)F)CC1` [20d, 3-(4-(3,5-dimethyl-1H-pyrazol-4-yl)piperazin-1-yl)-4-(trifluoromethyl)benzoic acid], the half-life in data set [2] (microsomes), in [3] (microsomes), in data set [4] (microsomes) and in data set [5] (microsomes) was greater than 1 h each time.
Turning to `Cc1ccc(C(=O)O)cc1N1CCN(c2c(C)n[nH]c2C)CC1` [20c, 3-(4-(3,5-dimethyl-1H-pyrazol-4-yl)piperazin-1-yl)-4-methylbenzoic acid], the half-life in [2] (microsomes), in [3] (microsomes), in data set [4] (microsomes) and in data set [5] (microsomes) was greater than 1 h in each case.
Turning to `Cc1n[nH]c(C)c1CCCOc1cc(C(=O)O)ccc1F` [AG10, acoramidis], the “stabilization of TTR” value with ATTR-CM [9] (ATTR-CM patients with symptomatic chronic heart failure) was “near-complete stabilization”. Besides, the tolerability result in the data set on ATTR-CM [9] is “well tolerated”.

What is called half-life is the time in which the quantity being followed falls by half. By fraction unbound is commonly meant the share of the substance not bound to proteins or other matrix. A word on the solubility: it is how much of the substance goes into solution per volume. In general, inhibition refers to the change of the read-out against control, counted positive when it falls. The microsomal CLint is the capacity of the preparation to metabolise the compound, expressed as a volume cleared per time.

(Values after publication PMC9578043 (Journal of medicinal chemistry, 2021).)
